Results taken from PubChem BioAssay AID1259408 (Genetic Toxicology Data Bank (GENE-TOX), 2018).
Calls of active or inactive are those of the source. How the calls were made is not given here.

Tested on: GENE-TOX genotoxicity assays, various organisms and cells
Test: GENE-TOX mutagenicity studies
Details: for call: Assay Type: In vivo carcinogenicity studies, Assay Code: CCG+L
[1] = Species/Cell Type: Bacillus subtilis (H17 vs M45), Assay Type: Rec-assay, spot test, DNA effects (bacterial DNA repair), Assay Code: REW+, Evaluation Type: Evaluation A (Pre-1980)
[2] = Species/Cell Type: Nonhuman, Evaluation Type: Evaluation A (Pre-1980)
[3] = Species/Cell Type: Escherichia coli polA (W3119 vs P3478), Assay Type: Rec-assay, DNA effects (bacterial DNA repair), Assay Code: RE1T, Evaluation Type: Evaluation A (Pre-1980)
[4] = Species/Cell Type: Human lymphocytes, Assay Type: Sister-chromatid exchange (SCE) in vitro, Assay Code: SCLT, Evaluation Type: Evaluation B (Post-1980)
[5] = Species/Cell Type: Human, Assay Type: Sister-chromatid exchange (SCE) in vitro, Assay Code: SC1T, Evaluation Type: Evaluation B (Post-1980)
[6] = Species/Cell Type: Salmonella typhimurium (one or more of the five standard strains: TA98, TA100, TA1535, TA1537, and TA1538), Assay Type: Histidine reverse gene mutation, Ames assay, Assay Code: SAL+, Evaluation Type: Evaluation A (Pre-1980)

Cc1cc(O)c2c(c1O)C(=O)C13C(=C2O)C(=O)C2C(O)C1C1C(O)C3C(=O)C3=C(O)c4c(O)cc(C)c(O)c4C(=O)C321 (centres undefined)
mutagenic call [1]: active; positive | mutagenic call (Species/Cell Type: Human lymphocytes or leukocytes, Assay Type: Chromosome aberrations in vitro, Assay Code: CY7+, Evaluation Type: Evaluation A (Pre-1980)): active; positive | call [2]: active; positive

CCC(=O)Oc1ccc(/C(CC)=C(\CC)c2ccc(OC(=O)CC)cc2)cc1
mutagenic call (Species/Cell Type: Human lymphocytes, Assay Type: Sister-chromatid exchange (SCE) in vitro, Assay Code: SCL+, Evaluation Type: Evaluation B (Post-1980)): active; positive | mutagenic call (Species/Cell Type: Human, Assay Type: Sister-chromatid exchange (SCE) in vitro, Assay Code: SC1+, Evaluation Type: Evaluation B (Post-1980)): active; positive | mutagenic call (Species/Cell Type: Nonhuman, Assay Type: Sister-chromatid exchange (SCE) in vivo, Assay Code: SC3T, Evaluation Type: Evaluation B (Post-1980)): no conclusion | mutagenic call (Species/Cell Type: Saccharomyces cerevisiae, Assay Type: Aneuploidy, chromosome aberrations, Assay Code: YEN+, Evaluation Type: Evaluation A (Pre-1980)): active; positive

CC(C)CBr
mutagenic call [3]: no conclusion

Cc1cc(N(CCCl)CCCl)ccc1N=Nc1ccccc1C(=O)O
mutagenic call (Species/Cell Type: Drosophila melanogaster, Assay Type: Sex-linked recessive lethal gene mutation, Assay Code: SRL+, Evaluation Type: Evaluation A (Pre-1980)): active; positive

CNC(N)=O
mutagenic call [4]: no conclusion | mutagenic call [5]: no conclusion | mutagenic call (Species/Cell Type: Salmonella typhimurium, Assay Type: Forward and reverse gene mutation, host-mediated assay, Assay Code: HMA+, Evaluation Type: Evaluation A (Pre-1980)): active; positive

CCOP(=O)(OCC)SCCSCC (tested in a mixture with another compound)
mutagenic call [1]: active; positive | mutagenic call (Species/Cell Type: Drosophila melanogaster, Assay Type: Sex-linked recessive lethal gene mutation, Assay Code: SRL-, Evaluation Type: Evaluation A (Pre-1980)): inactive; negative | mutagenic call (Species/Cell Type: Escherichia coli WP2 UVRA, Assay Type: Tryptophan reverse gene mutation, Assay Code: WPU+D, Dose Response: With dose response, Evaluation Type: Evaluation A (Pre-1980)): active; positive | mutagenic call (Species/Cell Type: Escherichia coli polA (W3119 vs P3478), Assay Type: Rec-assay, DNA effects (bacterial DNA repair), Assay Code: RE1-, Evaluation Type: Evaluation A (Pre-1980)): inactive; negative | mutagenic call (Species/Cell Type: Nonhuman, Assay Type: Sister-chromatid exchange (SCE) in vitro, Assay Code: SC2+D*, Activation: With metabolic activation, Dose Response: With dose response, Evaluation Type: Evaluation B (Post-1980)): active; positive | mutagenic call (Species/Cell Type: Saccharomyces cerevisiae, Assay Type: Mitotic recombination or gene conversion, Assay Code: YEH+, Evaluation Type: Evaluation A (Pre-1980)): active; positive | mutagenic call [6]: active; positive

Cn1cnc([N+](=O)[O-])c1Sc1ncnc2nc[nH]c12
mutagenic call (Species/Cell Type: Drosophila melanogaster, Assay Type: Aneuploidy, partial sex chromosome loss, chromosome aberrations, Assay Code: DAP+M, Evaluation Type: Evaluation A (Pre-1980)): active; positive | mutagenic call (Species/Cell Type: Drosophila melanogaster, Assay Type: Aneuploidy, sex chromosome gain, chromosome aberrations, Assay Code: DAG+M, Evaluation Type: Evaluation A (Pre-1980)): active; positive | mutagenic call (Species/Cell Type: Drosophila melanogaster, Assay Type: Aneuploidy, whole sex chromosome loss, chromosome aberrations, Assay Code: DACT, Evaluation Type: Evaluation A (Pre-1980)): no conclusion | mutagenic call [4]: no conclusion | mutagenic call (Species/Cell Type: Human lymphocytes, Assay Type: Sister-chromatid exchange (SCE) in vivo, Assay Code: SCY+, Evaluation Type: Evaluation B (Post-1980)): active; positive | mutagenic call [5]: no conclusion | mutagenic call (Species/Cell Type: Mammalian polychromatic erythrocytes, Assay Type: Micronucleus test, chromosome aberrations, Assay Code: MNT+, Evaluation Type: Evaluation A (Pre-1980)): active; positive | mutagenic call (Species/Cell Type: Mouse, Sex: Male, Assay Type: Sperm morphology, Assay Code: SPI+, Evaluation Type: Evaluation A (Pre-1980)): active; positive | mutagenic call (Species/Cell Type: Neurospora crassa, Assay Type: Forward and reverse gene mutation, lethal mutation, host-mediated assay, Assay Code: HMD+, Evaluation Type: Evaluation A (Pre-1980)): active; positive | mutagenic call (Species/Cell Type: Neurospora crassa, Assay Type: Forward gene mutation, Assay Code: NEF+, Evaluation Type: Evaluation A (Pre-1980)): active; positive | call [2]: active; positive | mutagenic call (Species/Cell Type: Nonhuman, Assay Type: Sister-chromatid exchange (SCE) in vivo, Assay Code: SC3-, Evaluation Type: Evaluation B (Post-1980)): inactive; negative | mutagenic call (Species/Cell Type: Rodents, Sex: Male, Assay Type: Dominant lethal test, Assay Code: DLTT, Evaluation Type: Evaluation A (Pre-1980)): no conclusion | mutagenic call [6]: active; positive

Cc1cc(O)c2c(c1)C(=O)c1cc(O)cc(O)c1C2=O
mutagenic call (Species/Cell Type: Bacillus subtilis (H17 vs M45), Assay Type: Rec-assay, spot test, DNA effects (bacterial DNA repair), Assay Code: REW-, Evaluation Type: Evaluation A (Pre-1980)): inactive; negative | mutagenic call [3]: no conclusion

[Cl][Tl]
mutagenic call (Species/Cell Type: Syrian hamster embryo (SA7/SHE) cells, Assay Type: Cell transformation, viral enhanced, Assay Code: CT7+, Evaluation Type: Evaluation A (Pre-1980)): active; positive

CC(C)OC(=O)Nc1ccccc1
mutagenic call (Species/Cell Type: Vicia faba, Assay Type: Chromosome aberrations, Assay Code: VIC+D, Dose Response: With dose response, Evaluation Type: Evaluation A (Pre-1980)): active; positive

Cc1c2ccncc2c(C)c2c1[nH]c1ccccc12
mutagenic call (Species/Cell Type: Chinese hamster ovary (CHO) cells, Assay Type: Forward gene mutation at the HPRT locus, Assay Code: CHO+, Evaluation Type: Evaluation B (Post-1980)): active; positive | mutagenic call (Species/Cell Type: Nonhuman, Assay Type: Sister-chromatid exchange (SCE) in vitro, Assay Code: SC2+, Evaluation Type: Evaluation B (Post-1980)): active; positive
